Laboratory results taken from patent publication US11026942B2, “Agent for preventing and/or treating Alzheimer's disease” (KYOTO UNIVERSITY, priority 2015, dated 2021).

Experiments:
Assay type in all cases: cell-based, human
[1] = test system: Aβ42; assay: Aβ42 in FAD1 iPS cell-derived nerve cells (primary/secondary screening, dose dependency); conditions: secondary screening, FAD1 iPS cell-derived nerve cells, numerical value (Aβ change rate)
How it was run: (§1)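 Cerebral cortex neurons were induced from FAD1 patient iPS cells by doxycycline-inducible NGN2, delivered by PiggyBac. Aβ40 and Aβ42 in the culture medium gave the Aβ42/40 ratio, with dose dependency examined in primary and secondary screens. The secondary screen also covered Aβ38, Aβ43, sAPPα and sAPPβ.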

[2] = test system: Aβ42/40 ratio; assay: Aβ42/40 ratio in FAD1 iPS cell-derived nerve cells (primary/secondary screening, dose dependency); conditions: secondary screening
How it was run: as §1

[3] = test system: Aβ38; assay: Aβ38 in FAD1 iPS cell-derived nerve cells (secondary screening); design: scale not given here
Method: (§2) To further study reproducibility of the candidate drugs obtained by the primary screening, secondary screening was conducted. In addition to Aβ40, Aβ42, Aβ42/40 ratio, Aβ38, Aβ43, sAPPα, sAPPβ were also studied and each numerical value was obtained.

[4] = test system: Aβ43; assay: Aβ43 in FAD1 iPS cell-derived nerve cells (secondary screening); design: scale not given here
Method: as §2

[5] = test system: sAPPα; assay: sAPPα in FAD1 iPS cell-derived nerve cells (secondary screening); design: scale not given here; conditions: secondary screening, FAD1 iPS cell-derived nerve cells
Method: as §2

[6] = test system: sAPPβ; assay: sAPPβ in FAD1 iPS cell-derived nerve cells (secondary screening); design: sAPPβ: scale not given here; conditions: secondary screening, FAD1 iPS cell-derived nerve cells
Method: as §2

Structure (SMILES)	Aβ42 [1]	Ratio Aβ42/40 [2]	Aβ38 [3]	Aβ43 [4]	sAPPα [5]	sAPPβ [6]
CC(=O)OC1CCC2(C)C(=CCC3C4CCC(=O)C4(C)CCC32)C1 (stereo not drawn) [compound 109, PRASTERONE ACETATE]	0.68	0.7	0.9	0.85	0.69	0.55
Nc1nc(/C(=C/CC(=O)O)C(=O)N[C@@H]2C(=O)N3C(C(=O)O)=CCS[C@H]23)cs1 [compound 62, CEFTIBUTEN]	0.79	0.87	1.01	0.83	0.76	0.55
CCN(CC)C(C)CN1c2ccccc2Sc2ccccc21 (stereo not drawn) [compound 15, ETHOPROPAZINE]	0.84	0.88	1.03	0.84	0.72	0.71
COc1ccc(CCN(C)CCCC(C#N)(c2ccc(OC)c(OC)c2)C(C)C)cc1OC (stereo not drawn) [compound 75]	0.74	0.91	0.89	0.75	0.81	0.71
O=C(O)C(O)[C@H](O)[C@@H](O)[C@H](O)[C@H](O)CO (stereo partly drawn) [compound 56, GLUCOHEPTONIC ACID]	0.98	1.09	1.21	1.32	1.22	1.19
CN(C/C=C/C#CC(C)(C)C)Cc1cccc2ccccc12 [compound 5, TERBINAFINE]	0.94	0.96	1.06	0.94	0.98	1.06
COc1ccc(C(=O)c2ccccc2O)c(O)c1 [compound 54, DIOXYBENZONE]	0.93	1.02	1.16	0.83	0.72	0.75
CCN(CC)CCNC(=O)c1cc(Br)c(N)cc1OC [compound 86, BROMOPRIDE]	0.84	0.84	1.07	0.9	1	0.85
CC1CC(OC(=O)C(O)c2ccccc2)CC(C)(C)C1 (stereo not drawn) [compound 40, CYCLANDELATE]	0.88	0.8	1.09	0.98	0.92	0.84
CCC[C@H](N[C@@H](C)C(=O)N1[C@H](C(=O)O)C[C@@H]2CCCC[C@@H]21)C(=O)OCC [compound 64, PERINDOPRIL ERBUMINE]	0.81	0.85	1.01	0.91	0.7	0.53
CC(C)(C)NCC(O)c1ccccc1Cl (stereo not drawn) [compound 82, TULOBUTEROL]	0.83	0.85	1	0.84	0.87	0.74
Cc1cccc(C)c1NC(=O)C1CCCCN1C (stereo not drawn) [compound 2, MEPIVACAINE]	0.9	0.93	1.01	0.83	0.77	0.88
CN1CCCN=C1COC(=O)C(O)(c1ccccc1)C1CCCCC1 (stereo not drawn) [compound 1, OXYPHENCYCLIMINE]	0.99	1.03	1.08	0.98	0.91	1
CCN(CCCc1ccccc1)CCCc1ccccc1 [compound 7, ALVERINE]	0.86	0.93	0.94	0.79	0.78	0.63
CC(C(O)c1ccc(O)cc1)N1CCC(Cc2ccccc2)CC1 (stereo not drawn) [compound 44, IFENPRODIL]	1	0.96	1.23	1.03	1.13	1.09
CC(C)[N+](C)(CCC(C(N)=O)(c1ccccc1)c1ccccc1)C(C)C [compound 19, ISOPROPAMIDE]	0.88	1.24	1.09	0.95	0.84	0.74
CC1(C)C(C=C(Cl)Cl)C1C(=O)OC(C#N)c1cccc(Oc2ccccc2)c1 (stereo not drawn) [compound 38, CYPERMETHRIN]	0.83	0.87	0.97	0.95	0.85	0.88
CC1(C)O[C@@H]2[C@@H](CO[C@@]3(COS(N)(=O)=O)OC(C)(C)O[C@@H]23)O1 [compound 100, TOPIRAMATE]	0.79	0.92	0.9	1.02	0.81	0.78
CCc1cccc2c3c([nH]c12)C(CC)(CC(=O)O)OCC3 (stereo not drawn) [compound 26, ETODOLAC]	0.99	1.13	1.11	1.55	0.99	0.98
OC1CCCCC1N1CCC(c2ccccc2)CC1 (stereo not drawn) [compound 22, VESAMICOL]	0.9	0.97	1	0.87	0.89	0.74
C[C@H](CS)C(=O)N1CCC[C@H]1C(=O)O [compound 57, CAPTOPRIL]	0.87	0.94	1.09	0.86	0.91	0.91
CSc1ccc2c(c1)C(N1CCN(C)CC1)Cc1ccccc1S2 (stereo not drawn) [compound 31, METITEPINE]	0.83	0.86	1.03	0.88	0.76	0.66
CCCCOC(=O)c1ccc(N)cc1 [compound 58, BUTAMBEN]	0.95	1.03	1.08	0.95	0.79	0.76
COc1ccccc1OCC(O)CN1CCN(CC(=O)Nc2c(C)cccc2C)CC1 (stereo not drawn) [compound 3, RANOLAZINE]	0.85	0.89	1	0.82	0.64	0.61
CC(C)n1c(/C=C/[C@H](O)C[C@@H](O)CC(=O)O)c(-c2ccc(F)cc2)c2ccccc21 [compound 60, FLUVASTATIN]	0.96	0.84	1.16	1.04	0.99	1.14
O=c1oc2cc(O)ccc2s1 [compound 92, TIOXOLONE]	0.55	0.83	0.76	0.67	0.76	0.63
CN(C)CCc1c[nH]c2ccc(Cn3cncn3)cc12 [compound 80, RIZATRIPTAN]	0.96	0.85	1.2	1.07	0.96	1.08
